Data published in patent publication US20130210804A1, “TRICYCLIC MGLUR5 RECEPTOR MODULATORS” (priority 2010, published 2013).
Like-named read-outs stand apart in the source and are kept apart here.

Biological target: T1, human mGluR5A (Homo sapiens, UniProt P41594)
T1 construct: expressed in transfected cells; host or cells: CHO (Chinese Hamster Ovary) cells, kept under Puromycin and Zeocin selection
Experiment: Fluorescent Ca2+ mobilization (FLIPR) assay, potentiation of a sub-threshold (EC20, 300 nM) glutamate response
Format: cell-based
Conditions: CHO cells expressing human mGluR5A, potentiation in the presence of 300 nM glutamate
Text: The utility of the compounds in accordance with the present invention as positive allosteric modulators of metabotropic glutamate receptor activity, in particular mGluR5 activity, may be readily determined without undue experimentation by methodology well known in the art, including O'Brien et al., Molecular Pharmacology 2003, 64(3) 731-740. In particular, the compounds of the following examples had activity in reference assays by enhancing mGluR5 activity. […] Changes in intracellular Ca^2+ were measured with Fluo-4AM ester (Invitrogen/Molecular Probes), which was detected on a Fluorometric Imaging Plate Reader (FLIPR, Molecular Devices, Sunnyvale, Calif.). In a typical experiment the mGluR5 positive allosteric modulatory activity of the compounds of the present invention was determined in accordance with the following experimental method.
Chinese Hamster Ovary (CHO) cells expressing human mGluR5A were maintained in growth medium containing DMEM, 10% dialyzed Fetal Bovine Serum, 50 units/mL Penicillin, 50 ug/mL Streptomycin, 2 mM L-glutamine, 1×MEM non-essential amino acids, 1 mM sodium pyruvate, 25 mM HEPES, 55 uM 2-mercaptoethanol, 5 ug/mL Puromycin, and 250 ug/mL Zeocin at 37° C. and 5% CO2. The day before the experiment, the cells were washed and seeded in “plating media” containing only DMEM, 10% dialyzed Fetal Bovine Serum, 50 units/mL Penicillin, and 50 ug/mL Streptomycin at a density of 50,000 cells/well (100 uL/well) in black 384-well clear-bottom PDL-coated plates. The cells were grown overnight at 37° C. and 6% CO2. This overnight glutamine/glutamate starvation allowed for consistent expression of the mGluR5A receptor, and the ability to add a known amount of agonist (glutamate in most cases) on the day of the experiment.
The day of the experiment, the cells were washed with 37° C. Assay Buffer (Hanks Balanced Salt Solution with CaCl2 and MgCl2, 20 mM HEPES, 2.5 mM Probenecid, 0.1% BSA) with an automated plate washer (3×100 uL, aspiration 3 mm from bottom leaving ˜30 uL of buffer in each well). After washing, 30 uL of dye loading buffer (4 uM Fluo-4AM, 0.04% Pluronic acid, and 1% dialyzed FBS in assay buffer) were added to each well of the plates for 2 uM Fluo-4AM final concentration. The plates were incubated at 37° C. and 6% CO2 for 1 hour to allow for dye loading. After dye loading, the cells were washed again as above, and placed on the FLIPR. Assays were conducted with two possible scenarios: 1) To determine the potencies of the compounds, as either agonists of mGluR5 or potentiators of mGluR5 in the presence of a sub-threshold amount of glutamate, 10-point titrations of the compounds (1:3 dilution between each point, 30-0.0015 uM final concentrations) were added to the cells, followed by the addition of the EC20 of glutamate (300 nM) to the cells. 2) To determine the cooperativity of the compounds with the natural agonist (glutamate), single concentrations of the compounds were added to the cells, followed by the addition of a 10-point titration of glutamate (1:3 dilution between each point, 1000-0.05 uM final concentrations). […] For both scenarios above, operation of the FLIPR was the same. Baseline fluorescence was monitored for 10 seconds, followed by the addition of compounds diluted in Assay Buffer (1% DMSO concentration after this addition, 0.66% final DMSO concentration after agonist addition). After monitoring fluorescence for 5 minutes, during which time any intrinsic agonist activity of the compounds would have been detected, the agonist (glutamate) also diluted in assay buffer was then added to the cells. The response was then monitored for an additional 3 minutes. In scenario #1, the peak during the final 3 minutes was used for potentiator data, and the peak during the 5 minutes post compound addition was used for compound agonist data. […]

[1] = about/generally, read-out: EC50 for potentiating/enhancing the mGluR5 receptor in the FLIPR assay
[2] = inflection points, read-out: Representative FLIPR EC50 Values

T1 sequence (P41594 21-1180 isoform P41594-2 limits assumed): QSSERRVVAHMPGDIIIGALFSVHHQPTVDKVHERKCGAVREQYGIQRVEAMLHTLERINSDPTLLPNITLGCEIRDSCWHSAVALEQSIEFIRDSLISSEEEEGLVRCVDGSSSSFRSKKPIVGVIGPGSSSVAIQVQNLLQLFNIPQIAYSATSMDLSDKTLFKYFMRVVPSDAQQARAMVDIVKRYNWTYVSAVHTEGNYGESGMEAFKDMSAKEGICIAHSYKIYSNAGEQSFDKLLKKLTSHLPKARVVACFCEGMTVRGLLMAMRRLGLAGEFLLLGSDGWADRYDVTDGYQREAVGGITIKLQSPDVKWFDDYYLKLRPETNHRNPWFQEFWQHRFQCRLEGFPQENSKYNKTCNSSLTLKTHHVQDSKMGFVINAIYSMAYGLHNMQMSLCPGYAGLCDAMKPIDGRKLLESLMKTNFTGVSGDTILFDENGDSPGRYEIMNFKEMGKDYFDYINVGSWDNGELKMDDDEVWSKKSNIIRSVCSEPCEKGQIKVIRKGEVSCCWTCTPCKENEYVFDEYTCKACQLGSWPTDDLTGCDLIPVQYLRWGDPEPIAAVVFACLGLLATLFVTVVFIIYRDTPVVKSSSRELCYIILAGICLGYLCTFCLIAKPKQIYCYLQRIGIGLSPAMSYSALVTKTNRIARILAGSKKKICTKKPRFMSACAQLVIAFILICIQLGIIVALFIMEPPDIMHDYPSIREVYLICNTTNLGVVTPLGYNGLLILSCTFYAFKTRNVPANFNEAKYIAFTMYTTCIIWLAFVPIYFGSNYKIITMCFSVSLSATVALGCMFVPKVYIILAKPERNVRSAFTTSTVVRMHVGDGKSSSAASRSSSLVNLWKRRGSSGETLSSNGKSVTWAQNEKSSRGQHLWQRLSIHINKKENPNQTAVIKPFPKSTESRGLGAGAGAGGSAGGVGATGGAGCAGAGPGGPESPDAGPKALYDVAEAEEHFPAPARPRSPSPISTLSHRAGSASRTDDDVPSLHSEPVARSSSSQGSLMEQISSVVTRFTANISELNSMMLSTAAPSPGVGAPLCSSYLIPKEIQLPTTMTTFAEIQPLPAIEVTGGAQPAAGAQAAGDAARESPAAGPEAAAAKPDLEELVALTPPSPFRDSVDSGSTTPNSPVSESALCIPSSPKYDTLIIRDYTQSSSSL

EC50 [1]	EC50 [2]	Structure (SMILES)
< 1000 nM	50 nM	N#Cc1ccc2c(c1)CCC1CCC(c3nc(-c4cc(Cl)c[nH]4)no3)CN1C2=O (racemic) [Example 18-1, (±) cis-9-cyano-3-[3-(4-chloro1H-pyrrol-2-yl)-1,2,4-oxadiazol-5-yl]-1,3,4,11,12,12a-hexahydropyrido[1,2-b][2]benzazepin-6(2H)-one]
< 1000 nM	31 nM	Cc1c[nH]c(-c2noc(C3CCC4C=Cc5ccccc5C(=O)N4C3)n2)c1 (racemic) [Example 7-7, (±) cis-(Z)-3-[3-(4-methyl-1H-pyrrol-2-yl)-1,2,4-oxadiazol-5-yl]-1,3,4,12a-tetrahydropyrido[1,2-b][2]benzazepin-6(2H)-one]
< 1000 nM	–	COc1ccc2c(n1)CC[C@@H]1CC[C@H](c3nc(-c4cc(Cl)c[nH]4)no3)CN1C2=O [Example 13-2, (8S,10aS)-8-[3-(4-chloro-1H-pyrrol-2-yl)-1,2,4-oxadiazol-5-yl]-2-methoxy-8,9,10,10a,11,12-hexahydrodipyrido[1,2-a:2′,3′-e]azepin-5(7H)-one]
< 1000 nM	–	O=C1c2ccc(F)cc2C(F)(F)C[C@@H]2CC[C@H](c3nc(-c4ccc(F)cn4)no3)CN12 (racemic) [Example 20-3, (±) cis-9,11,11-trifluoro-3-[3-(5-fluoropuridin-2-yl)-1,2-4-oxadiazol-5-yl]-1,3,4,11,12,12a-hexahydropyrido[1,2-b][2]benzazepin-6(2H)-one]
< 1000 nM	–	O=C1c2cnc(F)cc2CC[C@@H]2CC[C@H](c3noc(-c4ccc(F)cn4)n3)CN12 (single isomer, unassigned) [Example 24-6]
< 1000 nM	8 nM	O=C1c2ccc(F)cc2CC[C@@H]2CC[C@H](c3nc(-c4cc(Cl)c[nH]4)no3)CN12 [Example 3-1, (3S,12aS)-9-Fluoro-3-[3-(4-chloro1H-pyrrol-2-yl)-1,2,4-oxadiazol-5-yl]-1,3,4,11,12,12a-hexahydropyrido[1,2-b][2]benzazepin-6(2H)-one]
< 1000 nM	71 nM	O=C1c2ccccc2OC[C@@H]2CC[C@H](c3nc(-c4cc(Cl)c[nH]4)no3)CN12 [Example 11-8, (6aS,9S)-9-[3-(4-chloro-1H-pyrrol-2-yl)-1,2,4-oxadiazol-5-yl]-6,6a,7,8,9,10-hexahydro-12H-pyrido[2,1-c][1,4]benzoxazepin-12-one]
< 1000 nM	16 nM	Cc1c[nH]c(-c2noc([C@H]3CC[C@H]4CCc5ccccc5C(=O)N4C3)n2)c1 [Example 1-5, cis-(3S,12aS)-3-(3-(4-Methyl-1H-pyrrol-2-yl)-1,2,4-oxadiazol-5-yl)-1,3,4,11,12,12a-hexahydrobenzo[e]pyrido[1,2-a]azepin-6(2H)-one]
